Experimental data as given in patent US20230085307A1, “PYRIDAZINONE COMPOUND AND HERBICIDE” (NISSAN CHEMICAL CORPORATION, priority 2019, published 2023).

What was measured:
[1] = system: Japanese bulrush; test: Test Example 2: herbicidal activity, application during weed generation under submerged conditions (Table 17, symbol B); format: in vivo, Japanese bulrush (Schoenoplectus juncoides); conditions: AAH 320 g/ha; application during weed generation, submerged conditions
Outline: (§1)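 3-wk visual-criteria score after one water-surface dose. Emulsion formulation, water-diluted to set rate; applied at 1–2 leaf stage; alluvial soil, 4 cm standing water; seeds co-sown; greenhouse 25–30° C.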

[2] = system: wild oat; test: Test Example 4: herbicidal effect by soil treatment (Table 19, symbol I); format: in vivo, wild oat (Avena fatua); conditions: 320 g/ha
Outline: (§2)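 Soil-surface application: an emulsion agent diluted with water to the predetermined dose is sprayed uniformly over seeds lying under roughly 1.5 cm of sterilized diluvial soil. Boxes stay in a greenhouse at 25° C. to 30° C. Three weeks later, each species is graded on previously defined criteria.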

[3] = system: Italian ryegrass; test: Test Example 5: herbicidal effect by foliage application, plastic box (Table 20, symbol K); format: in vivo, Italian ryegrass (Lolium multiflorum); conditions: foliage application, 320 g/ha, 3 weeks after application
Outline: (§3)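 Sow seeds spot-wise in sterilized diluvial soil; cover with ~1.5 cm soil. Grow 14 days in greenhouse, 25° C. to 30° C. Spray foliage with emulsion diluted to predetermined amount. Rate effect after 3 weeks.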

[4] = system: late watergrass; test: Test Example 2: herbicidal activity, application during weed generation under submerged conditions (Table 17, symbol A); format: in vivo, late watergrass (Echinochloa oryzicola); conditions: AAH 320 g/ha; application during weed generation, submerged conditions
Outline: as §1

[5] = system: green foxtail; test: Test Example 4: herbicidal effect by soil treatment (Table 19, symbol G); format: in vivo, green foxtail (Setaria viridis); conditions: 320 g/ha
Outline: as §2

[6] = system: southern crabgrass; test: Test Example 4: herbicidal effect by soil treatment (Table 19, symbol F); format: in vivo, southern crabgrass (Digitaria ciliaris); conditions: 320 g/ha
Outline: as §2

[7] = system: rice flat sedge; test: Test Example 3: herbicidal effect by foliage application, Wagner pot (Table 18, symbol E); format: in vivo, rice flat sedge (Cyperus iria); conditions: 320 g/ha
Outline: (§4)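 Plants were sown in alluvial soil held under 0.1–0.5 cm standing water and grown 14 days in a greenhouse at 25–30 °C. An emulsifiable formulation, water-diluted to the set dose, was then sprayed onto the foliage, and effects were scored three weeks later using previously defined criteria.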

[8] = system: wild oat; test: Test Example 5: herbicidal effect by foliage application, plastic box (Table 20, symbol I); format: in vivo, wild oat (Avena fatua); conditions: foliage application, 320 g/ha, 3 weeks after application
Outline: as §3

[9] = system: lambsquarters; test: Test Example 4: herbicidal effect by soil treatment (Table 19, symbol O); format: in vivo, lambsquarters (Chenopodium album); conditions: 320 g/ha
Outline: as §2

[10] = system: blackgrass; test: Test Example 5: herbicidal effect by foliage application, plastic box (Table 20, symbol J); format: in vivo, blackgrass (Alopecurus myosuroides); conditions: foliage application, 320 g/ha, 3 weeks after application
Outline: as §3

[11] = system: green foxtail; test: Test Example 5: herbicidal effect by foliage application, plastic box (Table 20, symbol G); format: in vivo, green foxtail (Setaria viridis); conditions: foliage application, 320 g/ha, 3 weeks after application
Outline: as §3

[12] = system: chickweed; test: Test Example 4: herbicidal effect by soil treatment (Table 19, symbol P); format: in vivo, common chickweed (Stellaria media); conditions: 320 g/ha
Outline: as §2

[13] = system: persian speedwell; test: Test Example 5: herbicidal effect by foliage application, plastic box (Table 20, symbol R); format: in vivo, Persian speedwell (Veronica persica); conditions: foliage application, 320 g/ha, 3 weeks after application
Outline: as §3

[14] = system: windgrass; test: Test Example 5: herbicidal effect by foliage application, plastic box (Table 20, symbol L); format: in vivo, windgrass (Apera spica-venti); conditions: foliage application, 320 g/ha, 3 weeks after application
Outline: as §3

[15] = system: velvetleaf; test: Test Example 5: herbicidal effect by foliage application, plastic box (Table 20, symbol M); format: in vivo, velvetleaf (Abutilon theophrasti); conditions: foliage application, 320 g/ha, 3 weeks after application
Outline: as §3

[16] = system: barnyard grass; test: Test Example 4: herbicidal effect by soil treatment (Table 19, symbol H); format: in vivo, barnyard grass (Echinochloa crus-galli); conditions: 320 g/ha
Outline: as §2

[17] = system: Italian ryegrass; test: Test Example 4: herbicidal effect by soil treatment (Table 19, symbol K); format: in vivo, Italian ryegrass (Lolium multiflorum); conditions: 320 g/ha
Outline: as §2

[18] = system: redroot pigweed; test: Test Example 4: herbicidal effect by soil treatment (Table 19, symbol N); format: in vivo, redroot pigweed (Amaranthus retroflexus); conditions: 320 g/ha
Outline: as §2

[19] = system: barnyard grass; test: Test Example 3: herbicidal effect by foliage application, Wagner pot (Table 18, symbol H); format: in vivo, barnyard grass (Echinochloa crus-galli); conditions: 320 g/ha
Outline: as §4

[20] = system: velvetleaf; test: Test Example 4: herbicidal effect by soil treatment (Table 19, symbol M); format: in vivo, velvetleaf (Abutilon theophrasti); conditions: 320 g/ha
Outline: as §2

SMILES	herbicidal effect rating, B: Japanese bulrush [1]	herbicidal effect rating, I: wild oat [2]	effect on Italian ryegrass (K) [3]	herbicidal effect rating, A: late watergrass [4]	herbicidal effect rating, G: green foxtail [5]	herbicidal effect rating, F: southern crabgrass [6]	herbicidal effect on E (rice flat sedge), rating 0-5 [7]	effect on wild oat (I) [8]	herbicidal effect rating, O: lambsquarters [9]	effect on blackgrass (J) [10]	effect on green foxtail (G) [11]	herbicidal effect rating, P: chickweed [12]	effect on persian speedwell (R) [13]	effect on windgrass (L) [14]	effect on velvetleaf (M) [15]	herbicidal effect rating, H: barnyard grass [16]	herbicidal effect rating, K: Italian ryegrass [17]	herbicidal effect rating, N: redroot pigweed [18]	herbicidal effect on H (barnyard grass), rating 0-5 [19]	herbicidal effect rating, M: velvetleaf [20]
CCCC(=O)Oc1c(C)nn(C)c(=O)c1-c1c(-c2ccc(OCC)cc2)sc2ccc(F)cc12 [2-031]	3 (Herbicidal rate of 40% or more and less than 70%)	0 (Herbicidal rate of 5% or less (almost no effect))	0 (Herbicidal rate of 5% or less (almost no effect))	4 (Herbicidal rate of 70% or more and less than 90%)	2 (Herbicidal rate of 20% or more and less than 40%)	1 (Herbicidal rate of 5% or more and less than 20%)	4 (Herbicidal rate of 70% or more and less than 90%)	0 (Herbicidal rate of 5% or less (almost no effect))	4 (Herbicidal rate of 70% or more and less than 90%)	0 (Herbicidal rate of 5% or less (almost no effect))	2 (Herbicidal rate of 20% or more and less than 40%)	1 (Herbicidal rate of 5% or more and less than 20%)	5 (Herbicidal rate of 90% or more (almost completely withered))	0 (Herbicidal rate of 5% or less (almost no effect))	5 (Herbicidal rate of 90% or more (almost completely withered))	3 (Herbicidal rate of 40% or more and less than 70%)	0 (Herbicidal rate of 5% or less (almost no effect))	4 (Herbicidal rate of 70% or more and less than 90%)	5 (Herbicidal rate of 90% or more (almost completely withered))	3 (Herbicidal rate of 40% or more and less than 70%)
CCCOc1ccc(-c2sc3ccc(F)cc3c2-c2c(OC(=O)CCC)c(C)nn(C)c2=O)cc1 [2-033]	4 (Herbicidal rate of 70% or more and less than 90%)	0 (Herbicidal rate of 5% or less (almost no effect))	2 (Herbicidal rate of 20% or more and less than 40%)	1 (Herbicidal rate of 5% or more and less than 20%)	0 (Herbicidal rate of 5% or less (almost no effect))	0 (Herbicidal rate of 5% or less (almost no effect))	5 (Herbicidal rate of 90% or more (almost completely withered))	0 (Herbicidal rate of 5% or less (almost no effect))	5 (Herbicidal rate of 90% or more (almost completely withered))	3 (Herbicidal rate of 40% or more and less than 70%)	5 (Herbicidal rate of 90% or more (almost completely withered))	4 (Herbicidal rate of 70% or more and less than 90%)	5 (Herbicidal rate of 90% or more (almost completely withered))	0 (Herbicidal rate of 5% or less (almost no effect))	5 (Herbicidal rate of 90% or more (almost completely withered))	0 (Herbicidal rate of 5% or less (almost no effect))	0 (Herbicidal rate of 5% or less (almost no effect))	5 (Herbicidal rate of 90% or more (almost completely withered))	5 (Herbicidal rate of 90% or more (almost completely withered))	3 (Herbicidal rate of 40% or more and less than 70%)
CCCC(=O)Oc1c(C)nn(C)c(=O)c1-c1c(-c2ccc(OC(C)C)cc2)sc2ccc(F)cc12 [2-035]	4 (Herbicidal rate of 70% or more and less than 90%)	0 (Herbicidal rate of 5% or less (almost no effect))	0 (Herbicidal rate of 5% or less (almost no effect))	1 (Herbicidal rate of 5% or more and less than 20%)	3 (Herbicidal rate of 40% or more and less than 70%)	3 (Herbicidal rate of 40% or more and less than 70%)	5 (Herbicidal rate of 90% or more (almost completely withered))	0 (Herbicidal rate of 5% or less (almost no effect))	5 (Herbicidal rate of 90% or more (almost completely withered))	3 (Herbicidal rate of 40% or more and less than 70%)	4 (Herbicidal rate of 70% or more and less than 90%)	3 (Herbicidal rate of 40% or more and less than 70%)	5 (Herbicidal rate of 90% or more (almost completely withered))	0 (Herbicidal rate of 5% or less (almost no effect))	5 (Herbicidal rate of 90% or more (almost completely withered))	2 (Herbicidal rate of 20% or more and less than 40%)	0 (Herbicidal rate of 5% or less (almost no effect))	5 (Herbicidal rate of 90% or more (almost completely withered))	5 (Herbicidal rate of 90% or more (almost completely withered))	3 (Herbicidal rate of 40% or more and less than 70%)
